Drawing on ChEMBL document CHEMBL5608109, “Hepatotoxicity screening of Donated Chemical Probes” (2024), this text covers viability for 29 compounds.

The subject of this assay is Hepatocyte spheroids. As to the kind of experiment: This assay model using primary human hepatocyte (PHH) spheroids, which are cultured in Williams E medium. After spheroid formation, cells are exposed to compounds in an FBS-free culture medium. […] Imaging is performed on an Opera Phenix High-Content Screening System, allowing quantification of proliferation as a readout for evaluating the effects of chemical probes on hepatocyte regeneration. Format: functional. As to conditions: read-out: Cell Viability; for viability at 1 µM: Concentration 1 uM; for viability at 10 µM: Concentration 10 uM; for viability at 0.1 µM: Concentration 0.1 uM.

Where a name gives a salt, the structure may show the parent alone.

On to `Cc1c(NC(=O)c2cc(C(N)=O)nc3cc(F)ccc23)c(C(F)(F)F)nn1Cc1ccc(C#N)cc1` [BAY-876], for which the viability (as a rule, a read-out of living cells in per cent, often relative to untreated cells) at 1 µM is 91.5% (non-toxic) and the viability at 10 µM is reported as 21.4% (toxic). On to `CN(C)CCCN1c2ccccc2Sc2ccc(Cl)cc21` [CHLORPROMAZINE HYDROCHLORIDE], for which the viability at 20 µM (Concentration 20 uM) was 0.683% (toxic). Turning to `COc1ccc2c(c1)O[C@@H](c1ccc(OC)c(OC)c1)C[C@H]2NC(=O)C1(c2ccc3c(c2)OC(F)(F)O3)CC1` [A-1596586], the viability at 1 µM is listed as 104% (non-toxic) and the viability at 10 µM is listed as 88.5% (non-toxic).

In the case of `O=C(NCCN1CCOCC1)c1ccc2c(c1)C(=O)c1ccc(Nc3ccc(F)c(NC(=O)c4ccccc4)c3)cc1CC2` [FS-694], the viability at 1 µM is 74.8% (non-toxic) and the viability at 10 µM is 84.2% (non-toxic).

Take `CC(=O)Nc1c(C(C)=O)c(=O)n(C)c2nc(-c3ccc(Cl)cc3Cl)c(-c3ccc(Cl)cc3)cc12` [NAPHTHYRIDINONE]: the viability at 1 µM is given as 117% (non-toxic) and the viability at 10 µM was 121% (non-toxic). The corresponding values for `CC(C)(O)c1cncc(-c2nc3ccc(F)cc3n2C2CC2)c1` [MSD-CYP11B2] are 113% (non-toxic) and 96.6% (non-toxic).

As to `C[C@H](NC(=O)c1cnc2n1[C@](C)(Cc1ccc(C#N)cc1)C(=O)N2c1cc(Cl)c(F)c(Cl)c1)C(=O)NC1(c2ccccn2)CC1` [BI 1950], the viability at 1 µM is listed as 110% (non-toxic) and the viability at 10 µM is reported as 121% (non-toxic).

With `Cc1c(N2CCCC2)nc2ccc(Br)cc2c1C(=O)NC[C@H](CCC(=O)O)c1ccccc1Cl` [BAY-6672], the viability at 1 µM is 106% (non-toxic) and the viability at 10 µM was 111% (non-toxic). Take `COc1cccc(CNC(=O)c2nc3scc(COCc4ccc(C(=O)O)cc4)c3c(=O)[nH]2)c1` [T-26c]: the viability at 0.1 µM is listed as 125% (non-toxic) and the viability at 1 µM was 99.4% (non-toxic).

With `O=C(Nc1cnc(Oc2ccc(F)cc2)nc1)N1CCc2ncccc2[C@@H]1c1ccc(F)cc1` [BAY-899], the viability at 1 µM is 92.3% (non-toxic) and the viability at 10 µM is on record as 106% (non-toxic). `CN(C)[C@@H]1CCN(c2cc(-c3ccccc3)nc3ccnn23)C1` [(R)-ZINC-3573]: the viability at 1 µM is reported as 111% (non-toxic) and the viability at 10 µM is recorded as 95.8% (non-toxic). Turning to `COc1cc(-c2cn([C@H]3CCc4c(F)cccc4N(CC(F)(F)F)C3=O)nn2)ccc1-n1cnc(C)c1`, the viability at 1 µM is given as 115% (non-toxic) and the viability at 10 µM is 126% (non-toxic). For `CN1C(=O)[C@@H](N2CCc3c(nn(Cc4ccccc4)c3Br)C2=O)COc2ccccc21` [TP-030-2], the viability at 0.1 µM is recorded as 69.5% (toxic) and the viability at 1 µM is 56.7% (toxic).

On to `CO[C@@H](C)c1c(Nc2ccc([C@H](N(C)C(=O)C3CCS(=O)(=O)CC3)C(F)(F)F)cc2)cnc2cc(Cl)nn12` [NVS-MALT1], for which the viability at 1 µM is on record as 99.7% (non-toxic) and the viability at 10 µM is recorded as 33.9% (toxic). In the case of `C[C@@H]1CN(c2cc(-c3n[nH]c4ccc(OC5(C)CC5)cc34)ncn2)C[C@H](C)O1` [MLi-2], the viability at 0.1 µM was 79.3% (non-toxic) and the viability at 1 µM is listed as 79.7% (non-toxic). `O=C(N1CCS(=O)(=O)CC1)N1C[C@H](c2ccc(OC(F)(F)F)cc2)C[C@H](c2nc(C3CC3)no2)C1` [BAY-386]: the viability at 1 µM is recorded as 121% (non-toxic) and the viability at 10 µM is given as 111% (non-toxic). On to `CC(=O)Nc1ncc(CN2CCC[C@H](Cc3cc(C)nc(C)c3)C2)s1` [JNJ-65355394], for which the viability at 1 µM is on record as 149% (non-toxic) and the viability at 10 µM is reported as 142% (non-toxic). Regarding `CC1=CC(C)=[N+]2C1=C(CCCCc1cn(CC(=O)N3CCc4nc(NC(=O)[C@H]5CCN(C#N)C5)sc4C3)nn1)c1c(C)cc(C)n1[B-]2(F)F`, the viability at 1 µM is reported as 104% (non-toxic) and the viability at 10 µM was 105% (non-toxic).

For `CNC(=O)c1cc(C(=O)NC2CC2)cn(Cc2ccccc2)c1=O` [GSK620], the viability at 1 µM is given as 117% (non-toxic) and the viability at 10 µM is on record as 85.9% (non-toxic).

Regarding `Cn1cncc1[C@](O)(COc1ccc(C#N)cc1-c1ccc(OC(F)(F)F)cc1)c1ccc(C#N)cc1`, the viability at 1 µM was 112% (non-toxic) and the viability at 10 µM is 113% (non-toxic). On to `O=C(O)[C@H]1[C@H](Cn2nnc3ccccc3c2=O)CC[C@@H]1C(=O)c1ccc(OCCC2CCOCC2)cc1` [BAY-7598], for which the viability at 0.1 µM is 96.9% (non-toxic) and the viability at 1 µM is on record as 97.3% (non-toxic). The corresponding values for `CNC(=O)Nc1ccc2c(c1)CC[C@@]21OC(=O)N(CC(=O)N(Cc2ccc(F)cc2)[C@@H](C)C(F)(F)F)C1=O` [A-485] are 102% (non-toxic) and 69.1% (toxic). On to `CN(C)C(=O)Cn1cc(-c2nc([C@@](C)(c3ccc(-c4cnc(N)nc4)cc3)C3CC3)no2)cn1` [BI 665915], for which the viability at 0.1 µM is listed as 104% (non-toxic) and the viability at 1 µM is 84.4% (non-toxic). Take `CN1CCN(c2cnc3c(C4CCN(C(=O)c5ccc(OC(F)(F)F)cc5N)CC4)ncnc3c2)CC1` [BAY-885]: the viability at 1 µM was 99.8% (non-toxic) and the viability at 10 µM is given as 98.6% (non-toxic). The corresponding values for `CCOc1ccc(S(=O)(=O)Nc2ccc(Cl)cc2C#Cc2cnc(C(=O)O)cc2OC)c2ncccc12` are 91.1% (non-toxic) and 17.2% (toxic).

As to `Cn1nc(C(F)(F)F)cc1-c1cnc(N2CCc3cc(S(=O)(=O)Nc4c(F)cc(Cl)cc4F)cc(N4CCCC4=O)c32)nc1` [TP-020], the viability at 1 µM is given as 121% (non-toxic) and the viability at 10 µM is given as 120% (non-toxic). For `Cc1cc(Nc2nccc(C)n2)cc(-c2cnc([C@@]3(O)CC[C@H](C(=O)O)C(C)(C)C3)s2)c1` [MRL-SYKi], the viability at 0.1 µM was 98.8% (non-toxic) and the viability at 1 µM was 95.5% (non-toxic).

With `N#CN1CC[C@H](C(=O)Nc2nc3c(s2)CN(C(=O)CN=[N+]=[N-])CC3)C1` [8RK64], the viability at 1 µM is reported as 97.6% (non-toxic) and the viability at 10 µM was 70.7% (toxic). Taken in the same sequence, the figures for `CCS(=O)(=O)c1cc2cc(C[C@](O)(CC(C)(C)c3ccc(F)cc3C(N)=O)C(F)(F)F)[nH]c2cn1` [BI 653048] were 116% (non-toxic) and 116% (non-toxic).
